Assay results taken from US9695155B2, “Herbicidal substituted pyrimidinyloxy benzene compounds” (E. I. DU PONT DE NEMOURS AND COMPANY, priority 2013, dated 2017).

Assays:
sedge, umbrella [1] = test: Test C flooded paddy test; assay type: in vivo, Cyperus difformis; conditions: Flood, scale 0 to 100 (0 no effect, 100 complete control), 13 to 15 days
Source text: (§1) At time of treatment, test pots were flooded to 3 cm above the soil surface, treated by application of test compounds directly to the paddy water, and then maintained at that water depth for the duration of the test. Treated plants and controls were maintained in a greenhouse for 13 to 15 days, after which time all species were compared to controls and visually evaluated. […] A dash (-) response means no test result.

morningglory [2] = test: Test A postemergence; assay type: in vivo, Ipomoea spp.; conditions: 0 to 100 scale where 0 is no effect and 100 is complete control
Procedure, shortened: (§2)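 Scoring: eye-based comparison with untreated controls, 0 for no effect through 100 for complete control, at about day 10. Treatments: directed soil spray preemergence; foliar spray postemergence on 2–10 cm plants at the one- to two-leaf stage. Medium: loam soil with sand.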

Heteranthera limosa = test: Test B flooded paddy test; assay type: in vivo; conditions: Flood, 250 g ai/ha; 0 to 100 scale where 0 is no effect and 100 is complete control
Procedure, shortened: (§3)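 Evaluation is visual, against untreated controls, 13 to 15 days after treatment. Before treatment, plants reached the 2-leaf stage; pots were then flooded 3 cm deep, compound was added to the water, and that level was maintained. Ratings run 0 to 100, with 100 meaning complete control.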

morningglory [3] = test: Test A preemergence; assay type: in vivo, Ipomoea spp.
Procedure, shortened: as §2

sedge, umbrella [4] = test: Test B flooded paddy test; assay type: in vivo, Cyperus difformis; conditions: Flood, 250 g ai/ha; 0 to 100 scale where 0 is no effect and 100 is complete control
Procedure, shortened: as §3

giant foxtail [5] = test: Test A postemergence; assay type: in vivo, Setaria faberii; conditions: 0 to 100 scale where 0 is no effect and 100 is complete control
Procedure, shortened: as §2

ducksalad = test: Test C flooded paddy test; assay type: in vivo, Heteranthera limosa; conditions: Flood, scale 0 to 100 (0 no effect, 100 complete control), 13 to 15 days
Source text: as §1

barnyardgrass [6] = test: Test C flooded paddy test; assay type: in vivo, Echinochloa crus-galli; conditions: Flood, scale 0 to 100 (0 no effect, 100 complete control), 13 to 15 days
Source text: as §1

barnyardgrass [7] = test: Test A postemergence; assay type: in vivo, Echinochloa crus-galli; conditions: 0 to 100 scale where 0 is no effect and 100 is complete control
Procedure, shortened: as §2

velvetleaf [8] = test: Test A postemergence; assay type: in vivo, Abutilon theophrasti; conditions: 0 to 100 scale where 0 is no effect and 100 is complete control
Procedure, shortened: as §2

rice [9] = test: Test C flooded paddy test; assay type: in vivo, Oryza sativa; conditions: Flood, scale 0 to 100 (0 no effect, 100 complete control), 13 to 15 days
Source text: as §1

giant foxtail [10] = test: Test A preemergence; assay type: in vivo, Setaria faberii
Procedure, shortened: as §2

corn [11] = test: Test A postemergence; assay type: in vivo, Zea mays; conditions: 0 to 100 scale where 0 is no effect and 100 is complete control
Procedure, shortened: as §2

pigweed [12] = test: Test A preemergence; assay type: in vivo, Amaranthus retroflexus
Procedure, shortened: as §2

corn [13] = test: Test A preemergence; assay type: in vivo, Zea mays
Procedure, shortened: as §2

barnyardgrass [14] = test: Test A preemergence; assay type: in vivo, Echinochloa crus-galli
Procedure, shortened: as §2

velvetleaf [15] = test: Test A preemergence; assay type: in vivo, Abutilon theophrasti
Procedure, shortened: as §2

barnyardgrass [16] = test: Test B flooded paddy test; assay type: in vivo, Echinochloa crus-galli; conditions: Flood, 250 g ai/ha; 0 to 100 scale where 0 is no effect and 100 is complete control
Procedure, shortened: as §3

wheat [17] = test: Test A preemergence; assay type: in vivo, Triticum aestivum
Procedure, shortened: as §2

pigweed [18] = test: Test A postemergence; assay type: in vivo, Amaranthus retroflexus; conditions: 0 to 100 scale where 0 is no effect and 100 is complete control
Procedure, shortened: as §2

large (Lg) crabgrass [19] = test: Test A postemergence; assay type: in vivo, Digitaria sanguinalis; conditions: 0 to 100 scale where 0 is no effect and 100 is complete control
Procedure, shortened: as §2

wheat [20] = test: Test A postemergence; assay type: in vivo, Triticum aestivum; conditions: 0 to 100 scale where 0 is no effect and 100 is complete control
Procedure, shortened: as §2

large (Lg) crabgrass [21] = test: Test A preemergence; assay type: in vivo, Digitaria sanguinalis
Procedure, shortened: as §2

rice [22] = test: Test B flooded paddy test; assay type: in vivo, Oryza sativa; conditions: Flood, 250 g ai/ha; 0 to 100 scale where 0 is no effect and 100 is complete control
Procedure, shortened: as §3

[23] = 500 g ai/ha, 0 to 100 scale where 0 is no effect and 100 is complete control

C#Cc1cnn(-c2ccccc2Oc2ncc(Cl)cn2)c1 [Compound 188]
Plant response rating, Sedge, Umbrella (sedge, umbrella [1]; 31 g ai/ha): 0
Plant response rating, Sedge, Umbrella (sedge, umbrella [1]; 62 g ai/ha): 0
Plant response rating, Sedge, Umbrella (sedge, umbrella [1]; 125 g ai/ha): 50
Plant response rating, Sedge, Umbrella (sedge, umbrella [1]; 250 g ai/ha): 75
Morningglory plant response rating (morningglory [2]; 125 g ai/ha): 40
Plant response rating, Morningglory (morningglory [2]; 500 g ai/ha): 100
Plant response rating, Ducksalad (Heteranthera limosa): 90
Morningglory plant response rating (0 to 100 scale) (morningglory [3]; 125 g ai/ha): 10
Morningglory plant response rating (morningglory [3]; [23]): 90
Plant response rating, Sedge, Umbrella (sedge, umbrella [4]): 90
Foxtail, Giant plant response rating (giant foxtail [5]; 125 g ai/ha): 60
Plant response rating, Foxtail, Giant (giant foxtail [5]; 500 g ai/ha): 90
Plant response rating, Ducksalad (ducksalad; 31 g ai/ha): 0
Plant response rating, Ducksalad (ducksalad; 62 g ai/ha): 0
Plant response rating, Ducksalad (ducksalad; 125 g ai/ha): 40
Plant response rating, Ducksalad (ducksalad; 250 g ai/ha): 60
Plant response rating, Barnyardgrass (barnyardgrass [6]; 31 g ai/ha): 0
Plant response rating, Barnyardgrass (barnyardgrass [6]; 62 g ai/ha): 0
Plant response rating, Barnyardgrass (barnyardgrass [6]; 125 g ai/ha): 0
Plant response rating, Barnyardgrass (barnyardgrass [6]; 250 g ai/ha): 0
Barnyardgrass plant response rating (barnyardgrass [7]; 125 g ai/ha): 30
Plant response rating, Barnyardgrass (barnyardgrass [7]; 500 g ai/ha): 90
Velvetleaf plant response rating (velvetleaf [8]; 125 g ai/ha): 90
Plant response rating, Velvetleaf (velvetleaf [8]; 500 g ai/ha): 100
Plant response rating, Rice (rice [9]; 31 g ai/ha): 0
Plant response rating, Rice (rice [9]; 62 g ai/ha): 0
Plant response rating, Rice (rice [9]; 125 g ai/ha): 0
Plant response rating, Rice (rice [9]; 250 g ai/ha): 0
Foxtail, Giant plant response rating (0 to 100 scale) (giant foxtail [10]; 125 g ai/ha): 90
Foxtail, Giant plant response rating (giant foxtail [10]; [23]): 100
Corn plant response rating (corn [11]; 125 g ai/ha): 20
Plant response rating, Corn (corn [11]; 500 g ai/ha): 50
Pigweed plant response rating (0 to 100 scale) (pigweed [12]; 125 g ai/ha): 100
Pigweed plant response rating (pigweed [12]; [23]): 100
Corn plant response rating (0 to 100 scale) (corn [13]; 125 g ai/ha): 0
Corn plant response rating (corn [13]; [23]): 20
Barnyardgrass plant response rating (0 to 100 scale, 0 is no effect, 100 is complete control) (barnyardgrass [14]; 125 g ai/ha): 30
Barnyardgrass plant response rating (barnyardgrass [14]; [23]): 100
Velvetleaf plant response rating (0 to 100 scale) (velvetleaf [15]; 125 g ai/ha): 70
Velvetleaf plant response rating (velvetleaf [15]; [23]): 100
Plant response rating, Barnyardgrass (barnyardgrass [16]): 30
Wheat plant response rating (0 to 100 scale) (wheat [17]; 125 g ai/ha): 0
Wheat plant response rating (wheat [17]; [23]): 30
Pigweed plant response rating (pigweed [18]; 125 g ai/ha): 100
Plant response rating, Pigweed (pigweed [18]; 500 g ai/ha): 100
Crabgrass, Large plant response rating (large (Lg) crabgrass [19]; 125 g ai/ha): 50
Plant response rating, Crabgrass, Large (large (Lg) crabgrass [19]; 500 g ai/ha): 80
Wheat plant response rating (wheat [20]; 125 g ai/ha): 0
Plant response rating, Wheat (wheat [20]; 500 g ai/ha): 30
Crabgrass, Large plant response rating (0 to 100 scale) (large (Lg) crabgrass [21]; 125 g ai/ha): 90
Crabgrass, Large plant response rating (large (Lg) crabgrass [21]; [23]): 100
Plant response rating, Rice (rice [22]): 0
